Molecules are shown by their SMILES. “Also recorded” adds a separate entry of the source.

The test system of data set [1] is human embryonic lung (HEL) fibroblasts. Nature of the data set: Cytotoxicity in HEL cell cultures (alteration of cell morphology). The conditions noted are these: microscopically detectable alteration of normal cell morphology.
Another data set deals with T1, Human TK-1 (Homo sapiens, UniProt P04183).
T1 sequence (P04183 1-234): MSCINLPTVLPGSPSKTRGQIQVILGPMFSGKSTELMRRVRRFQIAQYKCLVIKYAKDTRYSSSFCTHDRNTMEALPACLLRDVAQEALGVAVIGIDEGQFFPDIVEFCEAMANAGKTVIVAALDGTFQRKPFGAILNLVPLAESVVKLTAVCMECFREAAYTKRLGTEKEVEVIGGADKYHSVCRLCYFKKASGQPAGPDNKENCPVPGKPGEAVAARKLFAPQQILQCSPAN
Nature of the data set: Thymidine kinase assay using [CH3-3H]dThd as natural substrate, TK-1. The conditions noted are these: for IC50: 50% inhibitory concentration for TK-catalyzed conversion of [3H]dThd to its 5'-monophosphate, 1 µM dThd, 37 °C, 30 min. It counts as biochemical. The method, then:
(§1) Thymidine Kinase Assay Using [CH3-^3H]dThd as the Natural Substrate. The activity of recombinant thymidine kinase 1 (TK-1), TK-2, and herpes simplex virus-1 (HSV-1) TK, and the 50% inhibitory concentration of the test compounds, were assayed in a 50-μL reaction mixture containing 50 mM Tris/HCl, pH 8.0, 2.5 mM MgCl2, 10 mM dithiothreitol, 0.5 mM CHAPS, 3 mg/mL bovine serum albumin, 2.5 mM ATP, 1 µM [methyl-^3H]dThd, and enzyme. The samples were incubated at 37 °C for 30 min in the presence or absence of different concentrations (five-fold dilutions) of the test compounds. At this time, the enzyme reaction still proceeded linearly. Aliquots of 45 µL of the reaction mixtures were spotted on Whatman DE-81 filter paper disks (Whatman, Clifton, NJ, USA). The filters were washed three times for 5 min each in 1 mM ammonium formate, once for 1 min in water, and once for 5 min in ethanol. The radioactivity was determined by scintillation counting.

A further data set concerns the target T2, Human TK-2 (Homo sapiens, UniProt O00142).
T2 sequence (O00142 34-265): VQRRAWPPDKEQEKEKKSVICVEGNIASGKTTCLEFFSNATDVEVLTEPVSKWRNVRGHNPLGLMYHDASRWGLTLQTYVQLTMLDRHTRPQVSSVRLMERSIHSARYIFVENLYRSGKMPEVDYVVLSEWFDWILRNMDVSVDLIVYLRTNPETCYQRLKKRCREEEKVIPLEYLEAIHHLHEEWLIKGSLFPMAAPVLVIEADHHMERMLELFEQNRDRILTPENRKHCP
Nature of the data set: Thymidine kinase assay using [CH3-3H]dThd as natural substrate, TK-2. It counts as biochemical. Particulars: for IC50: 50% inhibitory concentration for TK-catalyzed conversion of [3H]dThd to its 5'-monophosphate, 1 µM dThd, 37 °C, 30 min. As for the experimental part: as §1

The target of data set [2] is T3, HSV-1 TK (Human herpesvirus 1, UniProt P0DTH5). Nature of the data set: Thymidine kinase assay using [CH3-3H]dThd as natural substrate, HSV-1 TK. It counts as biochemical. As for the experimental part: as §1
Data set [3] deals with T3, HSV-1 TK. The data set is described as follows: Substrate activity for HSV-1 TK by HPLC technology. It counts as biochemical, herpes simplex virus-1. An excerpt: Therefore, to evaluate this last point, we performed further studies to test the suitability of these compounds to pass the usual rate-limiting first phosphorylation step. Thus, the affinity of the synthesized compounds 2a–e for the cellular and HSV-1 thymidine kinases (TKs) were investigated (Table 2). […] It was expected that this cytosine analogue might show affinity for HSV-1 TK, as the natural nucleoside (2-deoxycytidine, 2-dC) is known to be recognized by several kinases, including HSV-1 TK; however, that was apparently not the case. […] Therefore, because some of the synthesized analogues were recognized by the virus-encoded nucleoside kinase, the lack of antiherpetic activity could be attributed to the lack of further conversion of the 5′-monophosphate derivative to the 5′-triphosphate or to a low affinity, if any, of the 5′-triphosphate metabolite to the virus-encoded DNA polymerase.

T3 sequence (P0DTH5 whole entry): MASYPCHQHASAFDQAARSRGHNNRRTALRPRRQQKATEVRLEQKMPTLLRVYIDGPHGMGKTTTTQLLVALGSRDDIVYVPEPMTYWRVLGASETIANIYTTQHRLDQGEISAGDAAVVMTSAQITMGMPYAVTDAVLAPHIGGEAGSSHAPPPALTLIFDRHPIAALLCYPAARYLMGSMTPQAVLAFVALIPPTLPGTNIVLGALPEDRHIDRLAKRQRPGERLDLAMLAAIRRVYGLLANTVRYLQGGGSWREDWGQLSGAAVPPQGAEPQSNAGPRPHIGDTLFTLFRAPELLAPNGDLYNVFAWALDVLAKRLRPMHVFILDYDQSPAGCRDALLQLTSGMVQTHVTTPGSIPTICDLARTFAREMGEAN

In the case of `Nc1nc2c(ncn2COCCO)c(=O)[nH]1` [Acyclovir], the “Cytotoxicity, minimum cytotoxic concentration” value in data set [1] is above 250 µM.

Turning to `O=c1[nH]c(=O)n([C@H]2C[C@H](O)[C@@H](CO)O2)cc1/C=C/Br` [Brivudin], the “Cytotoxicity, minimum cytotoxic concentration” value in data set [1] is recorded as above 250 µM.

As for `Nc1ccn(C[C@@H](CO)OCP(=O)(O)O)c(=O)n1` [Cidofovir], the “Cytotoxicity, minimum cytotoxic concentration” value in data set [1] is on record as above 250 µM.

As for `Nc1ncnc2c1ncn2[C@H]1CC[C@@H](CO)[C@@H]2C[C@@H]21` [Compound 2a], the IC50 on Human TK-1 is above 771 µM; on Human TK-2 it was above 771 µM; against HSV-1 TK [2], 578 µM.

Regarding `Nc1nc2c(ncn2[C@H]2CC[C@@H](CO)[C@@H]3C[C@@H]32)c(=O)[nH]1` [Compound 2b], at Human TK-1, the “Affinity for human TK-1 / human cellular kinases (in words)” value is given as “not for human TK-1” and the IC50 is above 726 µM. The “Substrate activity for HSV-1 TK, conversion to the monophosphate metabolite” value at HSV-1 TK [3] is “good substrate”. At Human TK-2, the “Affinity for mitochondrial TK-2 (in words)” value was “some marginal affinity” and the IC50 was 338 µM. Moreover, at HSV-1 TK [2], the “Affinity for HSV-1 TK (in words)” value is listed as “excellent affinity; also recorded: display affinity” and the midpoint of inhibition, the IC50, lay at 5.81 µM.

Take `O=c1ccn([C@H]2CC[C@@H](CO)[C@@H]3C[C@@H]32)c(=O)[nH]1` [Compound 2c]: the 50% inhibitory concentration (IC50) against Human TK-1, against Human TK-2 and at HSV-1 TK [2] was above 846 µM each time.

As to `Cc1cn([C@H]2CC[C@@H](CO)[C@@H]3C[C@@H]32)c(=O)[nH]c1=O` [Compound 2d], at Human TK-1, the “Affinity for human TK-1 / human cellular kinases (in words)” value is recorded as “not for human TK-1” and the IC50 is above 799 µM. Besides, the IC50 at Human TK-2 is above 799 µM. On HSV-1 TK [2], the “Affinity for HSV-1 TK (in words)” value is given as “display affinity” and the IC50 was 208 µM.

Take `Nc1ccn(C2CCC(CO)C3CC32)c(=O)n1` (stereo not drawn) [Compound 2e, 4-Amino-1-[(1′S,2′S,5′R,6′R)-5′-(hydroxymethyl)bicyclo [4.1.0]hept-2′-yl]pyrimidin-2(1H)-one]: the IC50 at Human TK-1, on Human TK-2 and against HSV-1 TK [2] was above 425 µM each time. For the same compound, the “Cytotoxicity, minimum cytotoxic concentration” value in data set [1] is recorded as above 100 µM. Also, on HSV-1 TK [2], the “Affinity for HSV-1 TK (in words)” value was “did not display affinity”.

In the case of `Nc1nc(O)c2ncn(COC(CO)CO)c2n1` [Ganciclovir], the “Cytotoxicity, minimum cytotoxic concentration” value in data set [1] is reported as above 100 µM.

What is called IC50 is the point on the concentration scale where inhibition reaches its midpoint. A low value points to greater potency.
